# Assay results taken from patent US12398123B2, “Chemical inhibition of the E3 ligase subunit FBXO7 confers neuroprotection and anti-inflammatory activity by stabilizing mitochondria” (University of Pittsburgh—Of the Commonwealth System of …, priority 2017, dated 2025).
# Peptide text beside a SMILES is read from it. * marks the point of attachment. Cbz = O=C(OCc1ccccc1)*
# Columns and labels:
# primary fibroblasts = experiment: 6-OHDA model in primary fibroblasts; settings: 6-OHDA 300 M (unit prefix printed as image), 19 h
# H9C2 cells [1] = experiment: tBHP-induced mitochondrial injury in H9C2 cells, MitoTracker Red flow cytometry; settings: 100 ng/ml 16 h, tBHP 100 μM 45 min
# H9C2 cells [2] = experiment: CCCP triggered mitochondrial injury in H9C2 cells, Mitosense Red and Annexin V flow cytometry; assay type: cell-based, rat; settings: 100 ng/ml 16 h, CCCP 20 μM 2 h; CCCP alone 17.2%
# primary cortical neurons = experiment: morphological injury of GFP-transfected primary cortical neurons challenged with MPP+; settings: MPP+ 24 h
# [3] = tested on: late neural progenitor cells differentiated from a human iPSC line; experiment: DMSO-induced cell death in late neural progenitor cells from an SNCA triplication iPSC line; assay type: cell-based; settings: 5 ng/mL for 1 wk
# Description: Methods. Late neural progenitor cells were derived from an iPSC line from a PD patient with SNCA gene triplication, as previously described (D'Aiuto et al. Organogenesis 10(4): 365-377). […] Images were acquired with a 40× oil objective (1.30 NA) on an Olympus IX71 microscope using Olympus CellSens V1.17 with a DP80 camera. Cell death was assessed by counting condensed/fragmented nuclei. Results.
# Pink1 [4] = experiment: Pink1 protein stability (CHX chase) in BEAS-2B cells; settings: 1 μg/ml for 16 h, then CHX 40 μg/ml
# Pink1 [5] = experiment: target validation: Pink1 levels in BEAS-2B cells with control or Fbxo7 siRNA; settings: Fbxo7 siRNA 3 days, compound 18 h
# [6] = tested on: TNF release from human PBMCs; experiment: LPS stimulated TNF secretion from PBMCs (ELISA); assay type: cell-based; settings: 2 h pretreatment, then LPS 10 ng/ml 4 h
# PINK1 [7] = assay type: cell-based, human; settings: SHSY5Y PINK1-Flag, compound 3 h, cycloheximide 10 μg/ml 1 h
# Description: FIGS. 7A-7H. […] FIG. 7A. […] FIG. 7B. […] FIG. 7C. […] FIG. 7D-7E. […] Scale bar=100 μm.
# PINK1 [8] = experiment: human lung slices challenged with LPS: Pink1 immunoblotting; settings: compound 4 h, then LPS 100 ng/ml 4 h
# [9] = tested on: cytokine release from human lung explants; experiment: human lung slices challenged with LPS: TNFα ELISA of supernatant; settings: compound 4 h, then LPS 100 ng/ml 4 h
# H9C2 cells [10] = experiment: mitochondrial membrane potential after CCCP in H9C2 cells, JC1 staining, confocal microscopy; settings: 100 ng/ml 16 h, CCCP 20 μM 2 h
# SH-SY5Y cells = experiment: MPP+ elicited injury in SH-SY5Y cells, AlamarBlue cell viability; settings: 5 μg/ml with MPP+ for 24 h, relative to BC1465
# [11] = intracerebral ventricular infusion in mice for 2 weeks (tolerability); assay type: in vivo, mouse; settings: 10 ug/ml via intracerebral ventricular infusion for 2 weeks
# Description: BC 1464 was administered in artificial CSF with DMSO by intracerebroventricular pump to C5bl/6 mice.
# [12] = tested on: P. aeruginosa (PA103) lung inflammatory injury; experiment: experimental pneumonia: mice given PA103 i.t.
# Pink1 [13] = experiment: Pink1 protein decay in BEAS-2B cells with proteasomal or lysosomal inhibitors and CHX; assay type: cell-based; settings: 30 min pretreatment (MG132 20 μM, leupeptin 100 μM), then CHX 40 μg/ml
# Description: FIGS. 1A-1E. Fbxo7 mediates Pink1 polyubiquitylation and proteasomal degradation. FIG. 1A. BEAS-2B cells were pretreated with MG132 (20 μM), leupeptin (100 μM), or diluent (control, CON) for 30 min, and then were treated with CHX (40 μg/ml) to assay protein decay. The cell lysates were obtained at the indicated time points for immunoblotting. FIG. 1B. BEAS-2B cells were nucleofected with V5-tagged Fbxo7 plasmid at indicated amounts and incubated for 48 h, the whole cell lysates were subjected to immunoblotting. FIG. 1C. BEAS-2B cells were nucleofected with 4 individual shRNAs respectively and analyzed by immunoblotting. FIG. 1D. BEAS-2B cells were nucleofected with control shRNA or Fbxo7 shRNA for 72 h, and then treated with CHX (40 μg/ml). The cells were collected at indicated time points for half-life analysis. FIG. 1E. In vitro ubiquitylation assays were performed with synthesized Pink1 combined with indicated recombinant proteins.
# Cell Culture and Transfection.
# Pink1 undergoes rapid proteolysis in cells, and the cleaved Pink1 fragment may be degraded through the N-end rule pathway. To test if full length Pink1 is subjected to ubiquitin mediated degradation, we evaluated the ability of proteasomal or lysosomal inhibitors to regulate stability of the kinase. […]
# [14] = 5 mg/kg intraperitoneal, 18 h, compared to vehicle control or BC1465
compound,measurement,setting,value
O=C(CCCn1c(SCC(=O)NCC2CCCO2)nc2ccccc2c1=O)NCc1ccccc1 (stereo not drawn) [BC1464],protection in the 6-OHDA model,primary fibroblasts,conferred protection
same,protection from tBHP-induced mitochondrial injury,H9C2 cells [1],largely protected mitochondria from oxidative stress
same,mitochondrial injury (damaged mitochondria) after tBHP,"H9C2 cells [1]; tBHP with vehicle 45.3%, untreated 4.1%",26.1%
same,CCCP damaged (depolarized) mitochondria,H9C2 cells [2],10.5%
same,retraction and simplification of the dendritic arbor,"primary cortical neurons; 5 μg/ml, versus BC1465",protect against retraction and simplification of the dendritic arbor
same,cell death in primary cortical neurons,primary cortical neurons,reduce cell death
same,toxicity elicited by DMSO (condensed/fragmented nuclei),[3],prevented toxicity elicited by DMSO
same,Pink1 protein stability upon inhibiting protein synthesis,Pink1 [4],largely stabilized Pink1
same,Pink1 levels after Fbxo7 siRNA treatment,Pink1 [5],not observed
same,reduction of LPS stimulated release of TNF,[6]; 1 ng/ml,~37%
same,LPS stimulated release of TNF,[6]; 10 ng/ml,potently blocked
same,PINK1 expression in the presence of cycloheximide,PINK1 [7],stabilizes PINK1 expression
same,Pink1 protein levels in human lung explants,PINK1 [8],selectively increase Pink1 protein levels
same,cytokine release in response to endotoxin,[9],inhibit cytokine release
same,mitochondrial membrane potential disrupted by CCCP (JC1),H9C2 cells [10],maintains the mitochondrial membrane potential
same,MPP+ elicited injury (cell viability),SH-SY5Y cells,significantly decreased MPP+ elicited injury
same,toxicity / survival,[11],no overt toxicity
same,lavage bacteria counts,"[12]; 5 mg/kg intraperitoneal at time of PA103, 18 h",no effect
same,lavage cell numbers,[12]; [14],significantly decreased
same,lavage cytokine levels,[12]; [14],significantly decreased
same,lavage protein,[12]; [14],significantly decreased
"N#Cc1ccccc1Cn1c(=O)n(CCCC(=O)NCc2ccc3c(c2)OCO3)c(=O)c2ccccc21 [BC1465, reference compound]",Pink1 protein stability upon inhibiting protein synthesis,Pink1 [4],no effect on Pink1 protein stability
CC(C)C[C@@H](C=O)NC(=O)[C@H](CC(C)C)NC(=O)[C@H](CC(C)C)NC(=O)OCc1ccccc1 [MG132] (Cbz-Leu-Leu-Leu-aldehyde),Pink1 accumulation / turnover,Pink1 [13],"accumulated not only the Pink1 fragment, but also full length Pink1"
CC(=O)N[C@@H](CC(C)C)C(=O)N[C@@H](CC(C)C)C(=O)N[C@H](C=O)CCCNC(=N)N [leupeptin],Pink1 accumulation / turnover,Pink1 [13],little impact on basal Pink1 turnover
